# Results as given in patent publication US11339167B2, “Substituted piperidines as kinase inhibitors” (Daewoong Pharmaceutical Co., Ltd., priority 2017, dated 2022).
# Where two headings read alike, the source gives them in different places.
# What was measured:
# human BTK = human BTK (Homo sapiens (Human), UniProt Q06187); assay: BTK kinase inhibitory activity, ADP Glo kinase assay
# human JAK3 = human JAK3 (Homo sapiens (Human), UniProt P52333); assay: JAK3 kinase inhibitory activity, ADP Glo kinase assay; format: biochemical; details: recombinant purified human JAK3, ATP 5 uM, Poly(Glu4,Tyr1) peptide, 1 hour 30° C.
# Sequence of human JAK3 (P52333 whole entry): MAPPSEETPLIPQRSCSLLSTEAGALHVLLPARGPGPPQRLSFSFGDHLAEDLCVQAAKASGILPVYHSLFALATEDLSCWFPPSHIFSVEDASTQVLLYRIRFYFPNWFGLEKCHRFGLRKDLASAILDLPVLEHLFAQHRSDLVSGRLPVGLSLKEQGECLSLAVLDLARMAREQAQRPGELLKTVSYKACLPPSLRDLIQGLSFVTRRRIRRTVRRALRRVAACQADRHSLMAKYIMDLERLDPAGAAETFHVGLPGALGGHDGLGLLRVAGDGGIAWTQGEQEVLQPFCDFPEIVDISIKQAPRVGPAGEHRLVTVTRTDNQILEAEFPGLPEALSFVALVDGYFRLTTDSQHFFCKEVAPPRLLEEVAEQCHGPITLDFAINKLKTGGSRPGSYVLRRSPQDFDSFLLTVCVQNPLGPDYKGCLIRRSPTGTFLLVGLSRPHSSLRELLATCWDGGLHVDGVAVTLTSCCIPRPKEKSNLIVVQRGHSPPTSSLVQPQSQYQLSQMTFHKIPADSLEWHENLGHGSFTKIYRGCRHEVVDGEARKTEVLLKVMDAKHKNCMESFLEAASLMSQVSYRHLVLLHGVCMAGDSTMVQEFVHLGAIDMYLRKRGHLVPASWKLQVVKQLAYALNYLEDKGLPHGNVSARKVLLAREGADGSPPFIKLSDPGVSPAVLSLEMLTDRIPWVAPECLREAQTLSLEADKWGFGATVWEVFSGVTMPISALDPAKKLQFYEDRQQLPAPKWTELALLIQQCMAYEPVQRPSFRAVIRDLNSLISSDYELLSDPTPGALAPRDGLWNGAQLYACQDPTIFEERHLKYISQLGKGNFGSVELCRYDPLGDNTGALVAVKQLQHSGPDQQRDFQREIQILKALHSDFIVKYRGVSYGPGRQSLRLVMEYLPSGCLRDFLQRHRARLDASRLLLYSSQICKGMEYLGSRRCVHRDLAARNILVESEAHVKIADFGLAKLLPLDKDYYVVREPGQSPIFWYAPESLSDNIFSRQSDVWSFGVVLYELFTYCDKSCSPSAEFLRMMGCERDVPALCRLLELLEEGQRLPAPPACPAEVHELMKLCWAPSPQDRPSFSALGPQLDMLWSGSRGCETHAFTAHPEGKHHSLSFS
# Procedure: JAK3 and BTK kinases inhibitory activities were measured for the compounds prepared in the Examples through in vitro analysis on the ADP Glow (Glo) platform.
# Specifically, the inhibitory activities against JAK3 and BTK kinase were measured using a JAK3 kinase assay kit (Promega, V9441) and a BTK kinase assay kit (Promega, V9071) which were purchased from Promega. […] After incubation (30° C.) for 1 hour, equivalent volume (25 uL per reaction) of ADP Glo was added and incubated (30° C.) for 40 minutes at room temperature. Then, a kinase detection reagent (50 uL per reaction) was added and incubated (30° C.) for 30 minutes at room temperature. The kinase activity was measured by chemiluminescence according to the instructions of ADP Glow kinase assay kit, and the inhibitory activity of the compounds according to the present disclosure was calculated.
# [1] = read-out: BTK IC50, recombinant purified human BTK, ATP 10 uM, Poly(Glu4,Tyr1) peptide, 1 hour 30° C.
# Sequence of human BTK (Q06187 whole entry): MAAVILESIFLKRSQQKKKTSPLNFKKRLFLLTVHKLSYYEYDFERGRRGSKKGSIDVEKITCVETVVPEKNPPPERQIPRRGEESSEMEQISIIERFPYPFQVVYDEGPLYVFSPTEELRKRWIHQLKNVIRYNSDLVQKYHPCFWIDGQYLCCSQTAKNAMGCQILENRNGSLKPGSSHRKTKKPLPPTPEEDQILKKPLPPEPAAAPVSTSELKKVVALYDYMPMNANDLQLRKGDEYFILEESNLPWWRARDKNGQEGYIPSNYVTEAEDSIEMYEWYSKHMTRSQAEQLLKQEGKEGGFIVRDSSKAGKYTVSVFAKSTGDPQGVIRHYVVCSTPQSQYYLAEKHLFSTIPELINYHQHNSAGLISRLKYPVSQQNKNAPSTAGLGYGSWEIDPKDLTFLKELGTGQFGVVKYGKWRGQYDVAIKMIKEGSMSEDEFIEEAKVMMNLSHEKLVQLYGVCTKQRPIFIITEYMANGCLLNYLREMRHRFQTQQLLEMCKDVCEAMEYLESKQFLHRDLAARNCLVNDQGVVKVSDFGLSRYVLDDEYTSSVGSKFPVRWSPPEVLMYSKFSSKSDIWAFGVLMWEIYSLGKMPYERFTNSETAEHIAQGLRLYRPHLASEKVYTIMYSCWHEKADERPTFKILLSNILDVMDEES
SMILES,IC50 (human BTK) [nM],IC50 (human JAK3) [nM],IC50 (human BTK; [1]) [nM]
"C=CC(=O)N1CC[C@@H](F)[C@H](Oc2nc(Nc3cnn(CC(F)F)c3)nc3[nH]ccc23)C1 (racemic) [Example 2, 1-(trans-3-((2-((1-(2,2-difluoroethyl)-1H-pyrazol-4-yl)amino)-7H-pyrrolo[2,3-d]pyrimidin-4-yl)oxy)-4-fluoropiperidin-1-yl)prop-2-en-1-one]",2.5,0.3,–
"C=CC(=O)N1CC[C@@H](F)[C@H](Oc2nc(Nc3cnn(C4CC4)c3)nc3[nH]cc(Cl)c23)C1 (racemic) [Example 10, 1-(trans-3-((5-chloro-2-((1-cyclopropyl-1H-pyrazol-4-yl)amino)-7H-pyrrolo[2,3-d]pyrimidin-4-yl)oxy)-4-fluoropiperidin-1-yl)prop-2-en-1-one]",2.8,0.4,–
"C=CC(=O)N1CC[C@@H](F)[C@H](Oc2nc(Nc3cnn(CC)c3)nc3[nH]cc(C#N)c23)C1 (racemic) [Example 12, 4-((trans-1-acryloyl-4-fluoropiperidin-3-yl)oxy)-2-((1-ethyl-1H-pyrazol-4-yl)amino)-7H-pyrrolo[2,3-d]pyrimidine-5-carbonitrile]",1.3,0.2,–
"C=CC(=O)N1CC[C@@H](F)[C@H](Oc2nc(Nc3cnn(C4CC4)c3)nc3[nH]cc(C#N)c23)C1 (racemic) [Example 13, 4-((trans-1-acryloyl-4-fluoropiperidin-3-yl)oxy)-2-((1-cyclopropyl-1H-pyrazol-4-yl)amino)-7H-pyrrolo[2,3-d]pyrimidine-5-carbonitrile]",1.1,0.3,–
"C=CC(=O)N1CC[C@H](F)[C@H](Oc2nc(Nc3cnn(CC(F)F)c3)nc3[nH]cc(F)c23)C1 (racemic) [Example 16, 1-(cis-3-((2-((1-(2,2-difluoroethyl)-1H-pyrazol-4-yl)amino)-5-fluoro-7H-pyrrolo[2,3-d]pyrimidin-4-yl)oxy)-4-fluoropiperidin-1-yl)prop-2-en-1-one]",5.9,0.6,–
"C=CC(=O)N1CC[C@H](F)[C@H](Oc2nc(Nc3cnn(CC(F)F)c3)nc3[nH]cc(C)c23)C1 (racemic) [Example 18, 1-(cis-3-((2-((1-(2,2-difluoroethyl)-1H-pyrazol-4-yl)amino)-5-methyl-7H-pyrrolo[2,3-d]pyrimidin-4-yl)oxy)-4-fluoropiperidin-1-yl)prop-2-en-1-one]",7,0.7,–
"C=CC(=O)N1CC[C@@H](F)[C@H](Oc2nc(Nc3cnoc3)nc3[nH]ccc23)C1 (racemic) [Example 23, 1-(trans-4-fluoro-3-((2-(isoxazol-4-ylamino)-7H-pyrrolo[2,3-d]pyrimidin-4-yl)oxy)piperidin-1-yl)prop-2-en-1-one]",11.6,0.7,–
"C=CC(=O)N1CC[C@@H](F)[C@@H](Oc2nc(Nc3cnn(CC(F)F)c3)nc3[nH]ccc23)C1 [Example 6, 1-((3S,4R)-3-((2-((1-(2,2-difluoroethyl)-1H-pyrazol-4-yl)amino)-7H-pyrrolo[2,3-d]pyrimidin-4-yl)oxy)-4-fluoropiperidin-1-yl)prop-2-en-1-one]",–,0.2,1.5
"C=CC(=O)N1CC[C@@H](F)[C@@H](Oc2nc(Nc3cc(C)ns3)nc3[nH]ccc23)C1 [Example 7, 1-((3S,4R)-4-fluoro-3-((2-((3-methylisothiazol-5-yl)amino)-7H-pyrrolo[2,3-d]pyrimidin-4-yl)oxy)piperidin-1-yl)prop-2-en-1-one]",–,0.2,1.3
"C=CC(=O)N1CC[C@@H](F)[C@@H](Oc2nc(Nc3cnn(C4CC4)c3)nc3[nH]ccc23)C1 [Example 8, 1-((3S,4R)-3-((2-((1-cyclopropyl-1H-pyrazol-4-yl)amino)-7H-pyrrolo[2,3-d]pyrimidin-4-yl)oxy)-4-fluoropiperidin-1-yl)prop-2-en-1-one]",–,0.2,1.4
"C=CC(=O)N1CC[C@@H](F)[C@@H](Oc2nc(Nc3cnn(CC)c3)nc3[nH]cc(C)c23)C1 [Example 19, 1-((3S,4R)-3-((2-((1-ethyl-1H-pyrazol-4-yl)amino)-5-methyl-7H-pyrrolo[2,3-d]pyrimidin-4-yl)oxy)-4-fluoropiperidin-1-yl)prop-2-en-1-one]",–,0.4,3.4
"C=CC(=O)N1CC[C@@H](F)[C@@H](Oc2nc(Nc3cnn(CC(F)F)c3)nc3[nH]cc(C)c23)C1 [Example 20, 1-((3S,4R)-3-((2-((1-(2,2-difluoroethyl)-1H-pyrazol-4-yl)amino)-5-methyl-7H-pyrrolo[2,3-d]pyrimidin-4-yl)oxy)-4-fluoropiperidin-1-yl)prop-2-en-1-one]",–,0.4,4.5
"C=CC(=O)N1CC[C@@H](F)[C@@H](Oc2nc(Nc3cc(C)ns3)nc3[nH]cc(C)c23)C1 [Example 21, 1-((3S,4R)-4-fluoro-3-((5-methyl-2-((3-methylisothiazol-5-yl)amino)-7H-pyrrolo[2,3-d]pyrimidin-4-yl)oxy)piperidin-1-yl)prop-2-en-1-one]",–,0.2,1.5
"C=CC(=O)N1CC[C@@H](F)[C@@H](Oc2nc(Nc3cnn(C4CC4)c3)nc3[nH]cc(C)c23)C1 [Example 22, 1-((3S,4R)-3-(2-((1-cyclopropyl-1H-pyrazol-4-yl)amino)-5-methyl-7H-pyrrolo[2,3-d]pyrimidin-4-yloxy)-4-fluoropiperidin-1-yl)prop-2-en-1-one]",–,0.4,3.6
"C=CC(=O)N1CC[C@@H](F)[C@H](Oc2nc(Nc3cnn(CC)c3)nc3[nH]ccc23)C1 [Example 24, 1-((3R,4R)-3-((2-((1-ethyl-1H-pyrazol-4-yl)amino)-7H-pyrrolo[2,3-d]pyrimidin-4-yl)oxy)-4-fluoropiperidin-1-yl)prop-2-en-1-one]",–,5.9,~400
"C=CC(=O)N1CC[C@@H](F)[C@@H](Oc2nc(Nc3cnn(CC)c3)nc3[nH]cc(Cl)c23)C1 [Example 26, 1-((3S,4R)-3-((5-chloro-2-((1-ethyl-1H-pyrazol-4-yl)amino)-7H-pyrrolo[2,3-d]pyrimidin-4-yl)oxy)-4-fluoropiperidin-1-yl)prop-2-en-1-one]",–,0.2,2
"C=CC(=O)N1CC[C@@H](F)[C@@H](Oc2nc(Nc3cnn(CC)c3)nc3[nH]cc(F)c23)C1 [Example 27, 1-((3S,4R)-3-((2-((1-ethyl-1H-pyrazol-4-yl)amino)-5-fluoro-7H-pyrrolo[2,3-d]pyrimidin-4-yl)oxy)-4-fluoropiperidin-1-yl)prop-2-en-1-one]",–,2,2.5
"C=CC(=O)N1CC[C@H](F)[C@H](Oc2nc(Nc3cnn(C4CC4)c3)nc3[nH]ccc23)C1 [Example 35, 1-((3R,4S)-3-((2-((1-cyclopropyl-1H-pyrazol-4-yl)amino)-7H-pyrrolo[2,3-d]pyrimidin-4-yl)oxy)-4-fluoropiperidin-1-yl)prop-2-en-1-one]",–,51.9,–
"C=CC(=O)N1CC[C@@H](F)[C@@H](Oc2nc(Nc3cnn(C4CCNCC4)c3)nc3[nH]ccc23)C1 [Example 36, 1-((3S,4R)-4-fluoro-3-((2-((1-(piperidin-4-yl)-1H-pyrazol-4-yl)amino)-7H-pyrrolo[2,3-d]pyrimidin-4-yl)oxy)piperidin-1-yl)prop-2-en-1-one]",–,0.8,–
